In patent publication US20250361230A1, “LATS Inhibitors and Uses Thereof” (The USA, as Represented by the Secretary, Dept. of Heath …, priority 2022, published 2025) one finds IC50 data, which are given here for eleven molecules.

What all share (assay type): biochemical
In one experiment the target is T1, LATS1 (Homo sapiens, UniProt O95835).
T1 sequence (O95835 1-1130): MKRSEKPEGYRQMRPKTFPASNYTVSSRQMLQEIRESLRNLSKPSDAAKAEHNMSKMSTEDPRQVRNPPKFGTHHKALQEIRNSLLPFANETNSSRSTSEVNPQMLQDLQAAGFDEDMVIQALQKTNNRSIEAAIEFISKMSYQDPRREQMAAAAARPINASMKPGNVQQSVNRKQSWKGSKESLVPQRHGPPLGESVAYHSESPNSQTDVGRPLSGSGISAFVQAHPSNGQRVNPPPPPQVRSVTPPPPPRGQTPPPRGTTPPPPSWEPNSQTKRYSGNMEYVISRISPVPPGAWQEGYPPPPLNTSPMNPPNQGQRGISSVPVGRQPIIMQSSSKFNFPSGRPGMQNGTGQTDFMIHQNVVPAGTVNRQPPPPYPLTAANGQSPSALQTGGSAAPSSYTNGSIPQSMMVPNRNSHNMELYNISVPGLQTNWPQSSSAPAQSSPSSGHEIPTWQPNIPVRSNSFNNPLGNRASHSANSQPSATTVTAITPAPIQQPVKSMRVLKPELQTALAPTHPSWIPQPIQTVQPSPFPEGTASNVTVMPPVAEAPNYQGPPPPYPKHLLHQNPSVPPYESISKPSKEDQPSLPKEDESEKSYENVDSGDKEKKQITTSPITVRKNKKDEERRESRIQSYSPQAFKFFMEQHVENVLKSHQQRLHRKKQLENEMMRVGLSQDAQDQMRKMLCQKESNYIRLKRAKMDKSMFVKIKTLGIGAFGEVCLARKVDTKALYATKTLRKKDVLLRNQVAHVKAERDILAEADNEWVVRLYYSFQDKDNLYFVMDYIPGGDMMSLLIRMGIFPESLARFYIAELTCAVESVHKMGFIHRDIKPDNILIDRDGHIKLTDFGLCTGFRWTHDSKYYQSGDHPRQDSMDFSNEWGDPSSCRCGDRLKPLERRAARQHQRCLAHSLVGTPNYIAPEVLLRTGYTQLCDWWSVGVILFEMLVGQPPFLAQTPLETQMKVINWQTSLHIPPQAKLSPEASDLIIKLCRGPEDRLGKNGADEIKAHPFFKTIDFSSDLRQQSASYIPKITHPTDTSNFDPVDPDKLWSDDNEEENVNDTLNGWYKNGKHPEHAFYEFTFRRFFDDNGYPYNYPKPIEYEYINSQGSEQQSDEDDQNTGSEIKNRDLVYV
The experiment in a line: RBC HotSpot kinase assay (33P-ATP, P81 filter-binding), LATS1. The following applies: Table 28, biochemical kinase assay; read-out: LATS1 IC50. As to the method:
(§1) Biochemical kinase inhibitory data was obtained for various exemplary compounds prepared according to the above.
(§2) The reagents used are as follows: Base Reaction buffer; 20 mM Hepes (pH 7.5), 10 mM MgCl2, 1 mM EGTA, 0.01% Brij35, 0.02 mg/ml BSA, 0.1 mM Na3VO4, 2 mM DTT, […]. Required cofactors were added individually to each kinase reaction.
(§3) The reaction procedure was as follows: • 1) Substrates were prepared in freshly prepared Reaction Buffer. • 2) Any required cofactors were delivered to the substrate solution above. • 3) Kinase was delivered into the substrate solution and gently mixed. • 4) Compounds were delivered in 100% DMSO into the kinase reaction mixture by Acoustic technology (Echo550; nanoliter range), followed by incubation for 20 min at room temp. • 5) ^33P-ATP was delivered into the reaction mixture to initiate the reaction. • 6) The mixture was incubated for 2 hours at room temperature. • 7) Kinase activity was detected by P81 filter-binding method.
(§4) Using the above functional assay, the inhibitory activity of the compounds for LATS1/2 versus AKT was characterized. The assays were typically run in a 10-point curve, in singlet, to produce a titration curve from which an IC50 value was obtained.
(§5) The reagents used are as follows: Base Reaction buffer; 20 mM Hepes (pH 7.5), 10 mM MgCl2, 1 mM EGTA, 0.01% Brij35, 0.02 mg/ml BSA, 0.1 mM Na3VO4, 2 mM DTT, 1% DMSO. Required cofactors were added individually to each kinase reaction.
(§6) Biochemical kinase inhibitory data was obtained for various exemplary compounds prepared according to the above in accordance with the protocols described in Examples 4 and 8. All biological activities are IC50, in nM.

The next experiment deals with T2, LATS2 (Homo sapiens, UniProt Q9NRM7).
T2 sequence (Q9NRM7 1-1088): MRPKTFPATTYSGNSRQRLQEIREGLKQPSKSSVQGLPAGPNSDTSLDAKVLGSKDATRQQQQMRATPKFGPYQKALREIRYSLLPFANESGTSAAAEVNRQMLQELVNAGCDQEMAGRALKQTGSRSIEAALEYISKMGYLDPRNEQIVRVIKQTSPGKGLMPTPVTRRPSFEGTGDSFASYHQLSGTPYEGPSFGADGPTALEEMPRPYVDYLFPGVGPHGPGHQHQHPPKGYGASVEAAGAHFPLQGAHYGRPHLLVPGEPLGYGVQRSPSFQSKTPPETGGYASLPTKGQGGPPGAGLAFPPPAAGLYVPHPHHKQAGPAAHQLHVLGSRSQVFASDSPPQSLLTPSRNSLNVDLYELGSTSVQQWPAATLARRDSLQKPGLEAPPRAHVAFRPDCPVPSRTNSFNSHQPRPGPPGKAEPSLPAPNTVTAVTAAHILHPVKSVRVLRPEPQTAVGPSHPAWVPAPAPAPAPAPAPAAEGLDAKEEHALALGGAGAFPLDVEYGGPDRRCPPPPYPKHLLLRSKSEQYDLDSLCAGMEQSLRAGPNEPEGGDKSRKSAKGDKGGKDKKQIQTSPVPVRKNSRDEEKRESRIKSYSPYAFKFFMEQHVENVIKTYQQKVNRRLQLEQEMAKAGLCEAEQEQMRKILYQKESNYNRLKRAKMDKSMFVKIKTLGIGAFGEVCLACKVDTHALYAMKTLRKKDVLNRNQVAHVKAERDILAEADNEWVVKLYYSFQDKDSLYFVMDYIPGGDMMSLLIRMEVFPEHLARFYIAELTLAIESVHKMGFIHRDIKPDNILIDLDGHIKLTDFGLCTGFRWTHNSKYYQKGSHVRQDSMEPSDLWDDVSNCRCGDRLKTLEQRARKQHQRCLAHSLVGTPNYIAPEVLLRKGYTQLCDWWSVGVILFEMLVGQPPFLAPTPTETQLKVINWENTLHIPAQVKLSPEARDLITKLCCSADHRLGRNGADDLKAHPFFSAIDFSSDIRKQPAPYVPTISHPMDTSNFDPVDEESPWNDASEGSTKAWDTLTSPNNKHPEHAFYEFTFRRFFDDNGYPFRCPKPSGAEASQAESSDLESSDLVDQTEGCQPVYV
The experiment in a line: RBC HotSpot kinase assay (33P-ATP, P81 filter-binding), LATS2. To be noted: Table 28, biochemical kinase assay; read-out: LATS2 IC50. As to the method: as §1, §2, §3, §4, §5, §6

In another experiment the target is AKT (Homo sapiens, UniProt P31749). The experiment in a line: RBC HotSpot kinase assay (33P-ATP, P81 filter-binding), AKT. The following applies: Table 28, biochemical kinase assay; read-out: AKT IC50. As to the method:
as §1, §2, §3, §4, §5, §6

Molecules are shown by their SMILES.

Chain of AKT (P31749 whole entry): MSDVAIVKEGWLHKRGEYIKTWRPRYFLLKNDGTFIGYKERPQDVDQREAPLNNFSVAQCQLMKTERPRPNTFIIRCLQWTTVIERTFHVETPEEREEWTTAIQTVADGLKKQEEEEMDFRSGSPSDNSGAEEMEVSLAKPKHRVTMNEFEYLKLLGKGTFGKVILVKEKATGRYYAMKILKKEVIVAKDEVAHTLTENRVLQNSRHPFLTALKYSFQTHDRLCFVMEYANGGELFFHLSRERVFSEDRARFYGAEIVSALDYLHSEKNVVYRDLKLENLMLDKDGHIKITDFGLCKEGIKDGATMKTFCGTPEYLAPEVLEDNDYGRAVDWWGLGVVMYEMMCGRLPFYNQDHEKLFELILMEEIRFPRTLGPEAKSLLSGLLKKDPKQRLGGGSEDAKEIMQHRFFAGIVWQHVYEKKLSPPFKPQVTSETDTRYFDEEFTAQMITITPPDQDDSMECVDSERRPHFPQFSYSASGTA

In the case of `Cc1nc(-c2ccnc3[nH]cc(F)c23)ccc1[C@@]1(O)[C@H](C)CN(C2CCC2)C[C@@H]1C` [Compound 50, (3R,4s,5S)-1-cyclobutyl-4-(6-(3-fluoro-1H-pyrrolo[2,3-b]pyridin-4-yl)-2-methylpyridin-3-yl)-3,5-dimethylpiperidin-4-ol], the IC50 amounted to 6.1 nM on LATS1, 24.7 nM on LATS2 and 906 nM on AKT.

Turning to `Cc1cc(-c2ccnc3[nH]cc(F)c23)ncc1[C@@]1(O)[C@H](C)CN(Cc2ccncc2)C[C@@H]1C` [Compound 52, (3R,4s,5S)-4-(6-(3-fluoro-1H-pyrrolo[2,3-b]pyridin-4-yl)-4-methylpyridin-3-yl)-3,5-dimethyl-1-(pyridin-4-ylmethyl)piperidin-4-ol], the IC50 on LATS1 was 2210 nM; on LATS2 it was 5080 nM; at AKT, above 10000 nM.

`C[C@@H]1CN(C(CF)CF)C[C@H](C)C1(O)c1ccc(-c2ccnc3[nH]cc(F)c23)cc1Cl` (stereo partly drawn) [Compound 53, (3S,5R)-4-(2-chloro-4-(3-fluoro-1H-pyrrolo[2,3-b]pyridin-4-yl)phenyl)-1-(1,3-difluoropropan-2-yl)-3,5-dimethylpiperidin-4-ol]: the half-inhibitory concentration (IC50) at LATS1 was found to be 3 nM; on LATS2, 3.6 nM; on AKT, 374 nM.

As to `Cc1cc(-c2ccnc3[nH]cc(F)c23)ncc1C1(O)[C@H](C)CN(C2CCS(=O)(=O)CC2)C[C@@H]1C` (stereo partly drawn) [Compound 56, 4-((3R,5S)-4-(6-(3-fluoro-1H-pyrrolo[2,3-b]pyridin-4-yl)-4-methylpyridin-3-yl)-4-hydroxy-3,5-dimethylpiperidin-1-yl)tetrahydro-2H-thiopyran 1,1-dioxide], the IC50 was 2080 nM at LATS1, 4250 nM on LATS2 and above 10000 nM on AKT.

Take `C[C@@H]1CN(C(=O)[C@H]2CCCN2)C[C@H](C)[C@@]1(O)c1c(F)cc(-c2ccnc3[nH]cc(F)c23)cc1F` [Compound 59, 4-(4-((3S,4R,5R)-1-(L-prolyl)-4-hydroxy-3,5-dimethylpiperidin-4-yl)-3,5-difluorophenyl)-3-fluoro-1H-pyrrolo[2,3-b]pyridine]: the IC50 amounted to 21.6 nM on LATS1, 10.3 nM at LATS2 and 1470 nM on AKT.

Consider `Cc1cc(-c2ccnc3[nH]cc(F)c23)cc(F)c1[C@@]1(O)[C@H](C)CN(C(=O)C2(N)CC(F)(F)C2)C[C@@H]1C` [Compound 62, (1-amino-3,3-difluorocyclobutyl) ((3S,4s,5R)-4-(2-fluoro-4-(3-fluoro-1H-pyrrolo[2,3-b]pyridin-4-yl)-6-methylphenyl)-4-hydroxy-3,5-dimethylpiperidin-1-yl)methanone], for which the figures for the IC50 on LATS1, on LATS2 and on AKT were 19.7 nM, 4.3 nM and 5880 nM, respectively.

As for `Cc1cc(-c2ccnc3[nH]cc(F)c23)cc(F)c1[C@@]1(O)[C@H](C)CN(C(=O)[C@@H]2CCCN2)C[C@@H]1C` [Compound 63, 4-(4-((3S,4R,5R)-1-(L-prolyl)-4-hydroxy-3,5-dimethylpiperidin-4-yl)-3-fluoro-5-methylphenyl)-3-fluoro-1H-pyrrolo[2,3-b]pyridine], the IC50 at LATS1 came out at 8.5 nM; on LATS2, 3.4 nM; on AKT, 677 nM.

In the case of `Cc1cc(-c2ccnc3[nH]cc(F)c23)cc(F)c1[C@@]1(O)[C@H](C)CN(C(=O)[C@@H]2CC(F)(F)CN2)C[C@@H]1C` [Compound 64, ((S)-4,4-difluoropyrrolidin-2-yl)((3S,4R,5R)-4-(2-fluoro-4-(3-fluoro-1H-pyrrolo[2,3-b]pyridin-4-yl)-6-methylphenyl)-4-hydroxy-3,5-dimethylpiperidin-1-yl)methanone], the IC50 at LATS1 worked out at 6.7 nM; on LATS2 it was 3.6 nM; at AKT, 3140 nM.

Consider `Cc1cc(-c2ccnc3[nH]cc(F)c23)cc(F)c1[C@@]1(O)[C@H](C)CN(C(=O)[C@@H]2C[C@H](F)CN2)C[C@@H]1C` [Compound 65, ((3S,4R,5R)-4-(2-fluoro-4-(3-fluoro-1H-pyrrolo[2,3-b]pyridin-4-yl)-6-methylphenyl)-4-hydroxy-3,5-dimethylpiperidin-1-yl)((2S,4S)-4-fluoropyrrolidin-2-yl)methanone], for which the IC50 on LATS1 worked out at 8.7 nM; at LATS2, 3.2 nM; on AKT, 1180 nM.

Turning to `Cc1cc(-c2ccnc3[nH]cc(F)c23)cc(F)c1[C@@]1(O)[C@H](C)CN(C(=O)[C@@H]2C[C@@H](F)CN2)C[C@@H]1C` [Compound 66, ((3S,4R,5R)-4-(2-fluoro-4-(3-fluoro-1H-pyrrolo[2,3-b]pyridin-4-yl)-6-methylphenyl)-4-hydroxy-3,5-dimethylpiperidin-1-yl)((2S,4R)-4-fluoropyrrolidin-2-yl)methanone], the IC50 at LATS1 stood at 13 nM; at LATS2 it was 3 nM; on AKT, 673 nM.

Consider `CNCC(=O)N1C[C@@H](C)[C@](O)(c2c(C)cc(-c3ccnc4[nH]cc(F)c34)cc2F)[C@@H](C)C1` [Compound 67, 1-((3S,4s,5R)-4-(2-fluoro-4-(3-fluoro-1H-pyrrolo[2,3-b]pyridin-4-yl)-6-methylphenyl)-4-hydroxy-3,5-dimethylpiperidin-1-yl)-2-(methylamino) ethan-1-one], for which the IC50 at LATS1 turned out to be 8.7 nM; on LATS2, 2.8 nM; at AKT, 577 nM.
